Experimental data: US20110065916A1, “METHOD OF MAKING IMIDAZOAZEPINONE COMPOUNDS” (priority 2007, published 2011)

Tested on: human T-bet
Assay: HEKT-bet-luc assay (normalized HEKT-bet IC50)
Format: cell-based
Details: Homo sapiens, HEK293, 24 h, Table 4, engineered HEK cells, compound 24 hours, normalized to reference ER-819544
Experimental: HEKT-bet-luc assay: This assay measures a T-bet dependent reporter (luciferase) activity in engineered HEK cells that express a human T-bet and a T-box responsive element driving luciferase reporter. HEKT-bet cells were plated at 2×10^4/well in 96-well plate and compound was added into cell culture for 24 hours. Luciferase activity was measured by adding 50 μl of Steady-Glo reagent (Promega) and samples were read in Victor V reader (PerkinElmer). The activity of compound was determined by comparing compound treated samples to non-compound treated vehicle controls. The IC50 values were calculated utilizing a maximum value corresponding to the amount of luciferase in the absence of a test compound and a minimum value corresponding to a test compound value obtained at maximum inhibition.
Determination of Normalized HEKT-bet IC50 values: Compounds were assayed in microtiter plates. Each plate included a reference compound which was ER-819544. The un-normalized IC50 value for a particular compound was divided by the IC50 value determined for the reference compound in the same microtiter plate to provide a relative potency value. The relative potency value was then multiplied by the established potency of the reference compound to provide the normalized HEKT-bet IC50 value. […] The IC50 values provided herein were obtained using this normalization method.

Row | SMILES | IC50
1 | COc1cc2c(c(OC)c1)[C@@H](C)C=C1N(C2)C(=O)N(CCO)C12CCN(Cc1cc(C)cc(C)c1)CC2 (single isomer, unassigned) [ER-819786] | 30 nM
2 | COc1cc2c(c(OC)c1)[C@H](C)C=C1N(C2)C(=O)N(CCO)C12CCN(Cc1cc(C)cc(C)c1)CC2 (single isomer, unassigned) [ER-819787] | 170 nM
3 | COc1cc2c(c(OC)c1)[C@@H](C)C=C1N(C2)C(=O)N(C[C@@H](O)CO)C12CCN(Cc1cc(C)cc(C)c1)CC2 (single isomer, unassigned) [ER-819788] | 30 nM
4 | COc1cc2c(c(OC)c1)[C@H](C)C=C1N(C2)C(=O)N(C[C@@H](O)CO)C12CCN(Cc1cc(C)cc(C)c1)CC2 (single isomer, unassigned) [ER-819789] | 170 nM
5 | C=C(C)CN1C(=O)N2Cc3cc(OC)cc(OC)c3[C@@H](C)C=C2C12CCN(Cc1cc(C)cc(C)c1)CC2 (single isomer, unassigned) [ER-820006] | 60 nM
6 | C=C(C)CN1C(=O)N2Cc3cc(OC)cc(OC)c3[C@H](C)C=C2C12CCN(Cc1cc(C)cc(C)c1)CC2 (single isomer, unassigned) [ER-820007] | 1260 nM
7 | CCN1C(=O)N2Cc3cc(OC)cc(OC)c3[C@@H](C)C=C2C12CCN(Cc1nccn1C)CC2 [ER-811278-01] | 37 nM
8 | CCN1C(=O)N2Cc3cc(OC)cc(OC)c3[C@@H](C)C=C2C12CCN(Cc1csnn1)CC2 [ER-811279-01] | 210 nM
9 | CCN1C(=O)N2Cc3cc(OC)cc(OC)c3[C@@H](C)C=C2C12CCN(Cc1nc(C)oc1C)CC2 [ER-811283-01] | 53 nM
10 | CCN1C(=O)N2Cc3cc(OC)cc(OC)c3[C@@H](C)C=C2C12CCN(Cc1ccc3nccn3c1)CC2 [ER-811284-01] | 88 nM
11 | CCN1C(=O)N2Cc3cc(OC)cc(OC)c3[C@@H](C)C=C2C12CCN(Cc1cccc3c1OCCO3)CC2 [ER-811291-01] | 120 nM
12 | CCN1C(=O)N2Cc3cc(OC)cc(OC)c3[C@@H](C)C=C2C12CCN(Cc1cn3ccccc3n1)CC2 [ER-811292-01] | 130 nM
13 | CCN1C(=O)N2Cc3cc(OC)cc(OC)c3[C@@H](C)C=C2C12CCN(Cc1cnc3ccccc3n1)CC2 [ER-811297-01] | 74 nM
14 | CCN1C(=O)N2Cc3cc(OC)cc(OC)c3[C@@H](C)C=C2C12CCN(Cc1cccc3[nH]ccc13)CC2 [ER-811300-01] | 35 nM
15 | CCN1C(=O)N2Cc3cc(OC)cc(OC)c3[C@@H](C)C=C2C12CCN(Cc1cc3nccnc3s1)CC2 [ER-811301-01] | 260 nM
16 | CCN1C(=O)N2Cc3cc(OC)cc(OC)c3[C@@H](C)C=C2C12CCN(Cc1cccc(-n3cncn3)c1)CC2 [ER-811302-01] | 250 nM
17 | CCN1C(=O)N2Cc3cc(OC)cc(OC)c3[C@@H](C)C=C2C12CCN(Cc1ccc3occc3c1)CC2 [ER-811304-01] | 100 nM
18 | CCN1C(=O)N2Cc3cc(OC)cc(OC)c3[C@@H](C)C=C2C12CCN(Cc1c(C)nc3ccccn13)CC2 [ER-811305-01] | 31 nM
19 | CCN1C(=O)N2Cc3cc(OC)cc(OC)c3[C@@H](C)C=C2C12CCN(Cc1cccc3c1OCC3)CC2 [ER-811306-01] | 100 nM
20 | CCN1C(=O)N2Cc3cc(OC)cc(OC)c3[C@@H](C)C=C2C12CCN(Cc1cc3ccccc3o1)CC2 [ER-811308-01] | 56 nM
21 | CCN1C(=O)N2Cc3cc(OC)cc(OC)c3[C@@H](C)C=C2C12CCN(Cc1cn3ccsc3n1)CC2 [ER-811309-01] | 130 nM
22 | CCN1C(=O)N2Cc3cc(OC)cc(OC)c3[C@@H](C)C=C2C12CCN(Cc1c3ccccc3nn1C)CC2 [ER-811312-01] | 77 nM
23 | CCN1C(=O)N2Cc3cc(OC)cc(OC)c3[C@@H](C)C=C2C12CCN(Cc1cccc(-n3cccn3)c1)CC2 [ER-811317-01] | 74 nM
24 | CCN1C(=O)N2Cc3cc(OC)cc(OC)c3[C@@H](C)C=C2C12CCN(Cc1ccc3ccccc3n1)CC2 [ER-811323-01] | 42 nM
25 | CCN1C(=O)N2Cc3cc(OC)cc(OC)c3[C@@H](C)C=C2C12CCN(Cc1cccc3nsnc13)CC2 [ER-811332-01] | 67 nM
